Laboratory results reported in ChEMBL document CHEMBL4304793, “Evaluation of a Series of β-Secretase 1 Inhibitors Containing Novel Heteroaryl-Fused-Piperazine Amidine Warheads” (ACS Med Chem Lett, 2019).

Assay: Dissociation constant, pKa of compound
Format: physicochemical

Structure (SMILES) | pKa
C[C@@]1(c2cc(NC(=O)c3ccc(C#N)cn3)ccc2F)Cn2nncc2C(N)=N1 | 7.1
C[C@@]1(c2cc(NC(=O)c3ccc(C#N)cn3)ccc2F)Cn2cnnc2C(N)=N1 | 6.4
C[C@@]1(c2cc(NC(=O)c3ccc(C#N)cn3)ccc2F)Cn2nnnc2C(N)=N1 | 5.1
C[C@@]1(c2cc(NC(=O)c3ccc(C#N)cn3)ccc2F)Cn2ncnc2C(N)=N1 | 6.5
C[C@@]1(c2cccc(NC(=O)c3ccc(C#N)cn3)c2)Cn2nccc2C(N)=N1 | 8.5

Results, then the compound that gave them:

pKa | Structure (SMILES)
8.2 | C[C@@]1(c2cc(NC(=O)c3ccc(C#N)cn3)ccc2F)Cn2ccnc2C(N)=N1
10.3 | C[C@@]1(c2cc(NC(=O)c3ccc(C#N)cn3)ccc2F)Cn2cccc2C(N)=N1
9 | C[C@@]1(c2cc(NC(=O)c3ccc(C#N)cn3)ccc2F)Cn2cncc2C(N)=N1
